Reference: US4786638A, “2,4-disubstituted-5-cyano-1,6-dihydro-6-oxo-1-pyrimidineacetic acid aldose reductase inhibitors” (American Home Products Corporation, priority 1987, dated 1988)
Like-named read-outs stand apart in the source and are kept apart here.

What was measured:
[1] = system: galactitol accumulation in the tissues of the lens, sciatic nerve, and diaphragm; test: Galactosemic rats: lowering of dulcitol (galactitol) accumulation in lens, sciatic nerve and diaphragm; type: in vivo, Male Sprague-Dawley rats; details: for % Lowering dulcitol accumulation IN VIVO, D: diaphragm
Procedure: Such experiments are exemplified hereinbelow after the listing of the following general comments pertaining to these experiments:
Male Sprague-Dawley rats, weighing approximately 90 grams were separated into groups of equal average body weight, with six animals per group. The animals were housed in cages of six animals each and maintained on 12 hour night/12 hour day cycles. Except as otherwise noted, the animals were given food and water ad libitum.
On day 1, the galactosemic control group and all drug-treated groups were given access to 20% galactose chow (Bio-Serv, Frenchtown, N.J.). Animals in the control group were given access to 20% glucose chow (Bio-Serv). Test compounds were administered either in the diet or by gavage as a suspension in 2% Tween 80 in saline. In experiments in which gavage dosing was used, the animals were administered the test compound daily at approximately the same hour each day. Food intake and body weight were determined twice during the course of the experiment. In cases in which the compound was administered in the diet, the average dose was calculated on the basis of the actual average food intake during the experiment.
On the morning of day 5, all animals were fasted; beginning two hours later the animals were decapitated and the lenses, sciatic nerves, and a 50-100 mg portion of the diaphragm were removed, weighed, and frozen in porcelain plates on dry ice.
Only two minor reagent changes were made: (a) the rinsing mixture was an aqueous 5% (w/v) trichloroacetic acid solution and (b) the stock solution was prepared by dissolving 25 mg of dulcitol in 100 mL of an aqueous trichloroacetic acid solution [N.B.: For each experiment the average value found in the tissue from rats fed the glucose diet was subtracted from the individual values found in the corresponding tissue in galactose-fed rats to obtain the amount of polyol accumulated.]
The figures under L, N and D represent the percentage decrease of galactitol accumulation in the tissues of the lens, sciatic nerve, and diaphragm, respectively for treated rats as compared to untreated rats.

[2] = target: T1, aldose reductase (Bos taurus, UniProt P16116); test: In vitro aldose reductase inhibition (modified Hayman and Kinoshita procedure; enzyme from bovine lens); type: biochemical; details: for inhibition at 10 µM: read-out: % Inhibition IN VITRO 10^-5 M; for inhibition at 1 µM: read-out: % Inhibition IN VITRO 10^-6 M; for inhibition at 0.1 µM: read-out: % Inhibition IN VITRO 10^-7 M
T1 construct: preparation of the enzyme from bovine lens; from tissue; host or cells: bovine lens
Source text: In the present case the procedure of Hayman and Kinoshita was modified in that the final chromatography step was omitted in the preparation of the enzyme from bovine lens.

[3] = system: aldose reductase; details: reported by K. Sestanj et al., U.S. Pat. No. 4,568,693; cited from earlier work
[4] = 20% galactose diet, mg/kg by Example: 1:90, 2:128, 3:141, 4:93, 5:121, 6:110, 7:123, 8:87, 9:92, 10:102, 11:71, 12:84, 13:93, 14:112, 16:100, 17:100, 18:128, 19:117, 20:140, 21:103, 22:151, tolrestat:6
[5] = lens, 20% galactose diet, mg/kg by Example: 1:90, 2:128, 3:141, 4:93, 5:121, 6:110, 7:123, 8:87, 9:92, 10:102, 11:71, 12:84, 13:93, 14:112, 16:100, 17:100, 18:128, 19:117, 20:140, 21:103, 22:151, tolrestat:6

With `CSc1nc(C2CCCCC2)n(CC(=O)O)c(=O)c1C#N` [Example 1, 5-Cyano-2-cyclohexyl-1,6-dihydro-4-(methylthio)-6-oxo-1-pyrimidineacetic Acid] the “% Lowering dulcitol accumulation IN VIVO, L” value [1] was “N.S” and the “% Lowering dulcitol accumulation IN VIVO, D” value [1, 4] was 42%.

Compound `N#Cc1c(SCc2ccccc2)nc(C2CCCCC2)n(CC(=O)O)c1=O` [Example 2] has an inhibition at 10 µM [2] of 97%, an inhibition at 1 µM [2] of 96% and an inhibition at 0.1 µM [2] of 91%. For the same compound, the “% Lowering dulcitol accumulation IN VIVO, D” value [1, 4] was “N.S” and the “% Lowering dulcitol accumulation IN VIVO, L” value [1, 5] was “N.S”.

In the case of `N#Cc1c(SCc2ccc(Br)cc2)nc(C2CCCCC2)n(CC(=O)O)c1=O` [Example 3], the inhibition at 10 µM [2] is reported as 96%, the inhibition at 1 µM [2] is reported as 96% and the inhibition at 0.1 µM [2] is reported as 93%. The “% Lowering dulcitol accumulation IN VIVO, D” value [1, 4] was “N.S” and the “% Lowering dulcitol accumulation IN VIVO, L” value [1, 5] was “N.S”.

For `N#Cc1c(SCc2ccc(Br)cc2F)nc(C2CCCCC2)n(CC(=O)O)c1=O` [Example 4, 4-[[(4-bromo-2-fluorophenyl)methyl]thio]-5-cyano-2-cyclohexyl-1,6-dihydro-6-oxo-1-pyrimidineacetic acid], the “% Lowering dulcitol accumulation IN VIVO, D” value [1, 4] was “N.S” and the “% Lowering dulcitol accumulation IN VIVO, L” value [1, 5] was 15%.

In the case of `CCCCCCSc1nc(C2CCCCC2)n(CC(=O)O)c(=O)c1C#N` [Example 5], the inhibition at 10 µM [2] is reported as 94%, the inhibition at 1 µM [2] is reported as 95% and the inhibition at 0.1 µM [2] is reported as 96%. For the same compound, the “% Lowering dulcitol accumulation IN VIVO, D” value [1, 4] was “N.S” and the “% Lowering dulcitol accumulation IN VIVO, L” value [1, 5] was “N.S”.

With `CC(C)Sc1nc(C2CCCCC2)n(CC(=O)O)c(=O)c1C#N` [Example 6] the inhibition at 10 µM [2] was 93%, the inhibition at 1 µM [2] was 92% and the inhibition at 0.1 µM [2] was 90%. For the same compound, the “% Lowering dulcitol accumulation IN VIVO, D” value [1, 4] was “N.S” and the “% Lowering dulcitol accumulation IN VIVO, L” value [1, 5] was “N.S”.

With `N#Cc1c(SCC2CCCCC2)nc(C2CCCCC2)n(CC(=O)O)c1=O` [Example 7] the inhibition at 10 µM [2] was 96%, the inhibition at 1 µM [2] was 95% and the inhibition at 0.1 µM [2] was 90%. For the same compound, the “% Lowering dulcitol accumulation IN VIVO, D” value [1, 4] was “N.S” and the “% Lowering dulcitol accumulation IN VIVO, L” value [1, 5] was “N.S”.

For `CSc1nc(C(C)C)n(CC(=O)O)c(=O)c1C#N` [Example 8], the inhibition at 10 µM [2] was 96%, the inhibition at 1 µM [2] was 96% and the inhibition at 0.1 µM [2] was 94%. The “% Lowering dulcitol accumulation IN VIVO, D” value [1, 4] was “N.S” and the “% Lowering dulcitol accumulation IN VIVO, L” value [1, 5] was “N.S”.

For `CC(C)Sc1nc(C(C)C)n(CC(=O)O)c(=O)c1C#N` [Example 9], the inhibition at 10 µM [2] was 96%, the inhibition at 1 µM [2] was 97% and the inhibition at 0.1 µM [2] was 91%. The “% Lowering dulcitol accumulation IN VIVO, D” value [1, 4] was 16% and the “% Lowering dulcitol accumulation IN VIVO, L” value [1, 5] was “N.S”.

Compound `CC(C)c1nc(SCc2ccccc2)c(C#N)c(=O)n1CC(=O)O` [Example 10] has an inhibition at 10 µM [2] of 96%, an inhibition at 1 µM [2] of 98% and an inhibition at 0.1 µM [2] of 94%. For the same compound, the “% Lowering dulcitol accumulation IN VIVO, D” value [1, 4] was 38% and the “% Lowering dulcitol accumulation IN VIVO, L” value [1, 5] was “N.S”.

With `CSc1nc(C)n(CC(=O)O)c(=O)c1C#N` [Example 11, 5-Cyano-1,6-dihydro-2-methyl-4-(methylthio)-6-oxo-1-pyrimidineacetic Acid] the inhibition at 10 µM [2] was 86%, the inhibition at 1 µM [2] was 84% and the inhibition at 0.1 µM [2] was 74%. For the same compound, the “% Lowering dulcitol accumulation IN VIVO, D” value [1, 4] was “N.S” and the “% Lowering dulcitol accumulation IN VIVO, L” value [1, 5] was “N.S”.

With `Cc1nc(NCc2cccnc2)c(C#N)c(=O)n1CC(=O)O` [Example 12, 5-Cyano-1,6-dihydro-2-methyl-6-oxo-4-[(3-pyridinylmethyl)amino]-1-pyrimidineacetic Acid] the inhibition at 10 µM [2] was 88%, the inhibition at 1 µM [2] was 90% and the inhibition at 0.1 µM [2] was 30%. The “% Lowering dulcitol accumulation IN VIVO, D” value [1, 4] was “N.S” and the “% Lowering dulcitol accumulation IN VIVO, L” value [1, 5] was “N.S”.

Work on `Cc1nc(N2CCCCC2)c(C#N)c(=O)n1CC(=O)O` [Example 13] yielded an inhibition at 10 µM [2] of 88%, an inhibition at 1 µM [2] of 75% and an inhibition at 0.1 µM [2] of 52%. For the same compound, the “% Lowering dulcitol accumulation IN VIVO, D” value [1, 4] was “N.S” and the “% Lowering dulcitol accumulation IN VIVO, L” value [1, 5] was “N.S”.

`Cc1nc(N2CCN(Cc3ccccc3)CC2)c(C#N)c(=O)n1CC(=O)O` [Example 14] gave an inhibition at 10 µM [2] of 92%, an inhibition at 1 µM [2] of 89% and an inhibition at 0.1 µM [2] of 64%. For the same compound, the “% Lowering dulcitol accumulation IN VIVO, D” value [1, 4] was “N.S” and the “% Lowering dulcitol accumulation IN VIVO, L” value [1, 5] was “N.S”.

In the case of `Cc1nc(NCCc2ccccc2)c(C#N)c(=O)n1CC(=O)O` [Example 15], the inhibition at 10 µM [2] is reported as 89%, the inhibition at 1 µM [2] is reported as 88% and the inhibition at 0.1 µM [2] is reported as 71%. The “% Lowering dulcitol accumulation IN VIVO, D” value ([1]; 98 mg/kg) was “N.S”, the “% Lowering dulcitol accumulation IN VIVO, D” value ([1]; 196 mg/kg) was “N.S” and the “% Lowering dulcitol accumulation IN VIVO, L” value ([1]; lens, 98 mg/kg) was “N.S”. The “% Lowering dulcitol accumulation IN VIVO, L” value ([1]; lens, 196 mg/kg) was “N.S”.

Work on `Cc1nc(NCC2CCCCC2)c(C#N)c(=O)n1CC(=O)O` [Example 16] yielded an inhibition at 10 µM [2] of 93%, an inhibition at 1 µM [2] of 91% and an inhibition at 0.1 µM [2] of 72%. The “% Lowering dulcitol accumulation IN VIVO, D” value [1, 4] was “N.S” and the “% Lowering dulcitol accumulation IN VIVO, L” value [1, 5] was “N.S”.

`Cc1nc(NCc2ccccc2)c(C#N)c(=O)n1CC(=O)O` [Example 17] gave an inhibition at 10 µM [2] of 96%, an inhibition at 1 µM [2] of 90% and an inhibition at 0.1 µM [2] of 78%. The “% Lowering dulcitol accumulation IN VIVO, D” value [1, 4] was “N.S” and the “% Lowering dulcitol accumulation IN VIVO, L” value [1, 5] was “N.S”.

Compound `Cc1nc(N2CCC(Cc3ccccc3)CC2)c(C#N)c(=O)n1CC(=O)O` [Example 18] has an inhibition at 10 µM [2] of 90%, an inhibition at 1 µM [2] of 88% and an inhibition at 0.1 µM [2] of 81%. The “% Lowering dulcitol accumulation IN VIVO, D” value [1, 4] was “N.S” and the “% Lowering dulcitol accumulation IN VIVO, L” value [1, 5] was “N.S”.

With `N#Cc1c(-c2ccccc2)nc(-c2cccc3ccccc23)n(CC(=O)O)c1=O` [Example 19] the inhibition at 10 µM [2] was 84%, the inhibition at 1 µM [2] was 68% and the inhibition at 0.1 µM [2] was 29%. The “% Lowering dulcitol accumulation IN VIVO, D” value [1, 4] was 21% and the “% Lowering dulcitol accumulation IN VIVO, L” value [1, 5] was “N.S”.

In the case of `N#Cc1c(-c2ccccc2)nc(-c2cccc3c(Br)cccc23)n(CC(=O)O)c1=O` [Example 20, 5-Cyano-1,6-dihydro-2-(5-bromo-1-naphthalenyl)-6-oxo-4-phenyl-1-pyrimidineacetic Acid], the inhibition at 10 µM [2] is reported as 82%, the inhibition at 1 µM [2] is reported as 71% and the inhibition at 0.1 µM [2] is reported as 22%. For the same compound, the “% Lowering dulcitol accumulation IN VIVO, D” value [1, 4] was “N.S” and the “% Lowering dulcitol accumulation IN VIVO, L” value [1, 5] was “N.S”.

In the case of `Cc1nc(-c2cccc3ccccc23)n(CC(=O)O)c(=O)c1C#N` [Example 21, 5-cyano-1,6-dihydro-4-methyl-2-(1-naphthalenyl)-6-oxo-1-pyrimidineacetic acid], the inhibition at 10 µM [2] is reported as 87%, the inhibition at 1 µM [2] is reported as 55% and the inhibition at 0.1 µM [2] is reported as 14%. For the same compound, the “% Lowering dulcitol accumulation IN VIVO, D” value [1, 4] was “N.S” and the “% Lowering dulcitol accumulation IN VIVO, L” value [1, 5] was 18%.

In the case of `N#Cc1c(Cc2cccc3ccccc23)nc(-c2cccc3c(Br)cccc23)n(CC(=O)O)c1=O` [Example 22], the inhibition at 10 µM [2] is reported as 93%, the inhibition at 1 µM [2] is reported as 85% and the inhibition at 0.1 µM [2] is reported as 46%. For the same compound, the “% Lowering dulcitol accumulation IN VIVO, D” value [1, 4] was “N.S” and the “% Lowering dulcitol accumulation IN VIVO, L” value [1, 5] was “N.S”.

For `COc1ccc2c(C(=S)N(C)CC(=O)O)cccc2c1C(F)(F)F` [tolrestat, N-[[6-methoxy-5-(trifluoromethyl)-1-naphthalenyl]-thioxomethyl]-N-methylglycine, reference compound], the “% Lowering dulcitol accumulation IN VIVO, D” value [1, 4] is given as 90%, the “% Lowering dulcitol accumulation IN VIVO, L” value [1, 5] is given as “N.S” and the “inhibitor of aldose reductase (in words)” value [3] is given as “effective inhibitor of aldose reductase”.
